This assay deals with NL4-3 infected resting CD4+ T cells. Description: Intracellular HIV Gag staining (flow cytometry) of resting CD4+ T cells directly infected with NL4-3, day 3 post-infection. The following applies: resting CD4+ T cells infected with NL4-3 by spinoculation, cultured in the presence of the compound, three days postinfection. Format: cell-based. Here is the method:
Quiescent CD4+ T cells in the G0/1a stage of the life cycle were enriched by depletion of lineage and activation markers (39, 40). Cells were infected with NL4-3 by spinoculation (32) and cultured in the absence of activating cytokines and in the presence of the protease inhibitor saquinavir (17, 39). dNs were added to infected cultures to overcome SAMHD1− mediated restriction that has been described in resting T cells (33, 41, 42). Three days postinfection cells were stained with LIVE/DEAD aqua and stained for surface markers with antibodies against CD3 (AF700), CD4 (PECy5.5), and CD25/CD69/HLA-DR (APC). Cells were then fixed, permeabilized and stained for HIV Gag. […] Consistent with our previous work, the cultured Gag+ cells lacked the activation markers CD25, CD69 and HLA-DR at day 3. […] The level of integrated HIV DNA was determined to be 0.32 copies per cell in the bulk culture (termed whole culture, WC). Gag+CD4− cells contained 1.2 HIV proviruses per cell, which represented an enrichment of integrated HIV DNA in Gag+CD4− cells compared to Gag− cell populations (Gag−CD4− cells contained 0.013 copies, Gag−CD4int cells contained 0.11 copies, and Gag− CD4+ cells contained 0.24 copies of integrated HIV DNA per cell).
(In general: Flow cytometry measures light scatter and fluorescence of single cells or particles in a stream.)

Consider `Cc1nnc(C(=O)NC(C)(C)c2nc(C(=O)NCc3ccc(F)cc3)c(O)c(=O)n2C)o1` [raltegravir], for which the “Gag staining of infected cells” value is reported as “very low Gag staining”.

Values taken from US10620112B2, “Measuring HIV reservoirs with optical scanning” (SRI INTERNATIONAL, priority 2015, dated 2020).
